# Tested on: MV-4-11 cells
# Experiment: Gene expression microarray analysis (Affymetrix PrimeView) and GSEA
# Type: cell-based, human
# Parameters: RFU PODN (11730768_x_at) / Fold change /veh PODN (11730768_x_at) / RFU LINC00158 (11744669_a_at) / Fold change /veh LINC00158 (11744669_a_at) / RFU DUSP10 (11751237_a_at) / Fold change /veh DUSP10 (11751237_a_at) / RFU ID3 (11757404_x_at) / Fold change /veh ID3 (11757404_x_at) / RFU PLEKHG5 (11737974_s_at) / Fold change /veh PLEKHG5 (11737974_s_at) / RFU LRRC4B (11730491_at) / Fold change /veh LRRC4B (11730491_at) / RFU GIMAP4 (11747438_a_at) / Fold change /veh GIMAP4 (11747438_a_at) / RFU KRT8 (11758183_x_at) / Fold change /veh KRT8 (11758183_x_at) / RFU CNN1 (11734310_a_at) / Fold change /veh CNN1 (11734310_a_at) / RFU VPS37D (11726825_at) / Fold change /veh VPS37D (11726825_at) / RFU C10orf10 (11716522_x_at) / Fold change /veh C10orf10 (11716522_x_at) / RFU KIR2DL2 /// KIR2DL4 /// KIR2DL5A /// KIR2DL5B /// KIR2DS1 /// KIR2DS2 /// KIR2DS3 /// KIR2DS4 /// KIR3DL3 /// KIR3DL3 /// KIR3DS1 (11738374_at) / Fold change /veh KIR2DL2 /// KIR2DL4 /// KIR2DL5A /// KIR2DL5B /// KIR2DS1 /// KIR2DS2 /// KIR2DS3 /// KIR2DS4 /// KIR3DL3 /// KIR3DL3 /// KIR3DS1 (11738374_at) / RFU C1QL1 (11718748_at) / Fold change /veh C1QL1 (11718748_at) / RFU TMPRSS4 (11747572_a_at) / Fold change /veh TMPRSS4 (11747572_a_at) / RFU HAMP (11756126_x_at) / Fold change /veh HAMP (11756126_x_at) / RFU RNFT2 (11725882_a_at) / Fold change /veh RNFT2 (11725882_a_at) / RFU NR4A2 (11747474_a_at) / Fold change /veh NR4A2 (11747474_a_at) / RFU ABCC12 (11746883_a_at) / Fold change /veh ABCC12 (11746883_a_at) / RFU TMEM136 (11760407_x_at) / Fold change /veh TMEM136 (11760407_x_at) / RFU CLDN22 /// WWC2 (11732394_at) / Fold change /veh CLDN22 /// WWC2 (11732394_at) / RFU HLA-DPB1 (11760878_x_at) / Fold change /veh HLA-DPB1 (11760878_x_at) / RFU SPINT1 (11716480_a_at) / Fold change /veh SPINT1 (11716480_a_at) / RFU GAP43 (11754022_s_at) / Fold change /veh GAP43 (11754022_s_at) / RFU A4GNT (11735810_at) / Fold change /veh A4GNT (11735810_at) / RFU PRB3 (11715151_x_at) / Fold change /veh PRB3 (11715151_x_at) / RFU TUBB4B (11761932_at) / Fold change /veh TUBB4B (11761932_at) / RFU CAPN14 (11732068_a_at) / Fold change /veh CAPN14 (11732068_a_at) / RFU TMCC2 (11721928_a_at) / Fold change /veh TMCC2 (11721928_a_at) / RFU IRGQ (11745062_a_at) / Fold change /veh IRGQ (11745062_a_at) / RFU FAM174B (11720279_a_at) / Fold change /veh FAM174B (11720279_a_at) / RFU TMPRSS4 (11748680_a_at) / Fold change /veh TMPRSS4 (11748680_a_at) / RFU FAM212B (11763350_a_at) / Fold change /veh FAM212B (11763350_a_at) / RFU PLEKHG5 (11743358_a_at) / Fold change /veh PLEKHG5 (11743358_a_at) / RFU ZSCAN30 (11745921_a_at) / Fold change /veh ZSCAN30 (11745921_a_at) / RFU CMKLR1 (11741424_a_at) / Fold change /veh CMKLR1 (11741424_a_at) / RFU LOC101060620 /// MAPK8IP1 (11723275_at) / Fold change /veh LOC101060620 /// MAPK8IP1 (11723275_at) / RFU SPTSSB (11747773_x_at) / Fold change /veh SPTSSB (11747773_x_at) / RFU PRSS12 (11739890_at) / Fold change /veh PRSS12 (11739890_at) / RFU BIN1 (11741810_x_at) / Fold change /veh BIN1 (11741810_x_at) / RFU WNT11 (11732464_a_at) / Fold change /veh WNT11 (11732464_a_at) / RFU C10orf10 (11716521_a_at) / Fold change /veh C10orf10 (11716521_a_at) / RFU C5orf56 (11738089_at) / Fold change /veh C5orf56 (11738089_at) / RFU CYB561 (11721691_x_at) / Fold change /veh CYB561 (11721691_x_at) / RFU ANKRD19P (11752326_a_at) / Fold change /veh ANKRD19P (11752326_a_at) / RFU OR2T12 /// OR2T33 /// OR2T8 (11738714_s_at) / Fold change /veh OR2T12 /// OR2T33 /// OR2T8 (11738714_s_at) / RFU VCAN (11748164_a_at) / Fold change /veh VCAN (11748164_a_at) / RFU JSRP1 (11732532_at) / Fold change /veh JSRP1 (11732532_at) / RFU KRTAP10-11 (11738290_x_at) / Fold change /veh KRTAP10-11 (11738290_x_at) / RFU MYO3A (11730013_a_at) / Fold change /veh MYO3A (11730013_a_at) / RFU EBF3 (11725865_a_at) / Fold change /veh EBF3 (11725865_a_at) / RFU CAMK2N1 (11719241_x_at) / Fold change /veh CAMK2N1 (11719241_x_at) / RFU C5orf56 (11738088_a_at) / Fold change /veh C5orf56 (11738088_a_at) / RFU OLFML3 (11715873_a_at) / Fold change /veh OLFML3 (11715873_a_at) / RFU LOC100653217 /// NTM (11731650_a_at) / Fold change /veh LOC100653217 /// NTM (11731650_a_at) / RFU MAPK11 (11762145_a_at) / Fold change /veh MAPK11 (11762145_a_at) / RFU FIZ1 (11724087_x_at) / Fold change /veh FIZ1 (11724087_x_at) / RFU OASL (11726364_x_at) / Fold change /veh OASL (11726364_x_at) / RFU SOX15 (11748057_x_at) / Fold change /veh SOX15 (11748057_x_at) / RFU CD79A (11719716_a_at) / Fold change /veh CD79A (11719716_a_at) / RFU HIST1H1D (11736915_at) / Fold change /veh HIST1H1D (11736915_at) / RFU CASKIN2 (11723855_a_at) / Fold change /veh CASKIN2 (11723855_a_at) / RFU LOC730098 (11760151_x_at) / Fold change /veh LOC730098 (11760151_x_at) / RFU OR4N2 (11742367_at) / Fold change /veh OR4N2 (11742367_at) / RFU PRRT2 (11749266_a_at) / Fold change /veh PRRT2 (11749266_a_at) / RFU SNX32 (11753110_a_at) / Fold change /veh SNX32 (11753110_a_at) / RFU CDHR5 (11726645_a_at) / Fold change /veh CDHR5 (11726645_a_at) / RFU RCAN1 (11760418_a_at) / Fold change /veh RCAN1 (11760418_a_at) / RFU FAM167A (11723789_a_at) / Fold change /veh FAM167A (11723789_a_at) / RFU FAM26E (11764081_at) / Fold change /veh FAM26E (11764081_at) / RFU ISYNA1 (11749810_s_at) / Fold change /veh ISYNA1 (11749810_s_at) / RFU ACY1 (11761880_at) / Fold change /veh ACY1 (11761880_at) / RFU 11764098_at / Fold change /veh 11764098_at / RFU SAMD14 (11745864_x_at) / Fold change /veh SAMD14 (11745864_x_at) / RFU NPB (11741838_a_at) / Fold change /veh NPB (11741838_a_at) / RFU TMPRSS6 (11731388_a_at) / Fold change /veh TMPRSS6 (11731388_a_at) / RFU KRTAP10-2 (11738614_at) / Fold change /veh KRTAP10-2 (11738614_at) / RFU ARHGAP8 /// PRR5-ARHGAP8 (11727945_x_at) / Fold change /veh ARHGAP8 /// PRR5-ARHGAP8 (11727945_x_at) / RFU KRTAP5-7 /// NADSYN1 (11734609_at) / Fold change /veh KRTAP5-7 /// NADSYN1 (11734609_at) / RFU RASL12 (11751679_a_at) / Fold change /veh RASL12 (11751679_a_at) / RFU CDKN2B (11736163_a_at) / Fold change /veh CDKN2B (11736163_a_at) / RFU PRF1 (11729649_at) / Fold change /veh PRF1 (11729649_at) / RFU, ZNF638 /// ZNF638-IT1 / Fold change vs veh, ZNF638 /// ZNF638-IT1 / RFU, PANK3 / Fold change vs veh, PANK3 / RFU, SH3YL1 / Fold change vs veh, SH3YL1 / RFU, ZEB2 / Fold change vs veh, ZEB2 / RFU, NRIP1 / Fold change vs veh, NRIP1 / RFU, PTTG1IP / Fold change vs veh, PTTG1IP / RFU, CAPN2 / Fold change vs veh, CAPN2 / RFU, MED14 / Fold change vs veh, MED14 / RFU, SNORA58 / Fold change vs veh, SNORA58 / RFU, C1orf63 / Fold change vs veh, C1orf63 / RFU, LRRFIP1 / Fold change vs veh, LRRFIP1 / RFU, NDUFAF7 / Fold change vs veh, NDUFAF7 / RFU, SLC12A2 / Fold change vs veh, SLC12A2 / RFU, IBTK / Fold change vs veh, IBTK / RFU, ESF1 / Fold change vs veh, ESF1 / Fold change vs veh, TMEM50B / RFU, TAOK1 / Fold change vs veh, TAOK1 / RFU, ACBD3 / Fold change vs veh, ACBD3 / RFU, TMA16 / Fold change vs veh, TMA16 / RFU, RWDD3 / Fold change vs veh, RWDD3 / RFU, BCAT1 / Fold change vs veh, BCAT1 / RFU, EDEM3 / Fold change vs veh, EDEM3 / RFU, TMEM33 / Fold change vs veh, TMEM33 / RFU, WDR75 / Fold change vs veh, WDR75 / RFU, AHCTF1 / Fold change vs veh, AHCTF1 / RFU, TFRC / Fold change vs veh, TFRC / RFU, ZDHHC17 / Fold change vs veh, ZDHHC17 / RFU, NOM1 / Fold change vs veh, NOM1 / RFU, ARL8B / Fold change vs veh, ARL8B / RFU, ZBTB11 / Fold change vs veh, ZBTB11 / RFU, TAMM41 / Fold change vs veh, TAMM41 / RFU, KIAA1704 /// LOC100996395 / Fold change vs veh, KIAA1704 /// LOC100996395 / RFU, ING1 / Fold change vs veh, ING1 / RFU, TRMT61B / Fold change vs veh, TRMT61B / RFU, FUBP3 / Fold change vs veh, FUBP3 / RFU, TP53 / Fold change vs veh, TP53 / RFU, TNKS2 / Fold change vs veh, TNKS2 / RFU, ZFP14 / Fold change vs veh, ZFP14 / RFU, ACTR2 / Fold change vs veh, ACTR2 / RFU, PPP3R1 / Fold change vs veh, PPP3R1 / RFU, PIK3R1 / Fold change vs veh, PIK3R1 / RFU, HNRNPA1 / Fold change vs veh, HNRNPA1 / RFU, RNF170 / Fold change vs veh, RNF170 / RFU, ZNF28 / Fold change vs veh, ZNF28 / RFU, RNGTT / Fold change vs veh, RNGTT / RFU, OGT / Fold change vs veh, OGT / RFU, BRD1 / Fold change vs veh, BRD1 / RFU, MARS / Fold change vs veh, MARS / RFU, ZNF655 / Fold change vs veh, ZNF655 / RFU, FAHD1 / Fold change vs veh, FAHD1 / RFU, BDP1 / Fold change vs veh, BDP1 / RFU, LRRCC1 / Fold change vs veh, LRRCC1 / RFU, ARID1A / Fold change vs veh, ARID1A / RFU, ZNF146 / Fold change vs veh, ZNF146 / RFU, ZNF330 / Fold change vs veh, ZNF330 / RFU, GPN3 / Fold change vs veh, GPN3 / RFU, C9orf123 / Fold change vs veh, C9orf123 / RFU, N4BP2L2 / Fold change vs veh, N4BP2L2 / RFU, ARFIP1 / Fold change vs veh, ARFIP1 / RFU, FAM179B / Fold change vs veh, FAM179B / RFU, BCL10 / Fold change vs veh, BCL10 / RFU, UHRF1BP1L / Fold change vs veh, UHRF1BP1L / RFU, BET1 / Fold change vs veh, BET1 / RFU, CNOT2 / Fold change vs veh, CNOT2 / RFU, ZNF268 / Fold change vs veh, ZNF268 / Fold change vs veh, ZNF507 / RFU, DGCR2 / Fold change vs veh, DGCR2 / RFU, WDSUB1 / Fold change vs veh, WDSUB1 / Fold change vs veh, HSP90B1 /// MIR3652 / RFU, ADSS / Fold change vs veh, ADSS / RFU, GK / Fold change vs veh, GK / RFU, ZNF148 / Fold change vs veh, ZNF148 / RFU, TAF9 / Fold change vs veh, TAF9 / RFU, SLC1A5 / Fold change vs veh, SLC1A5 / RFU, SLMO2 / Fold change vs veh, SLMO2 / RFU, ABCC4 / Fold change vs veh, ABCC4 / RFU, LOC101060439 /// RAP1B / Fold change vs veh, LOC101060439 /// RAP1B / RFU, RFX7 / Fold change vs veh, RFX7 / RFU, GTPBP10 / Fold change vs veh, GTPBP10 / RFU, CNEP1R1 / Fold change vs veh, CNEP1R1 / RFU, BIVM-ERCC5 /// ERCC5 / Fold change vs veh, BIVM-ERCC5 /// ERCC5 / RFU, ILF3 / Fold change vs veh, ILF3 / RFU 11762660_at / Fold change /veh 11762660_at / RFU VCAN (11757783_s_at) / Fold change /veh VCAN (11757783_s_at) / RFU DDX43 (11728927_at) / Fold change /veh DDX43 (11728927_at) / RFU KRT8 (11758188_x_at) / Fold change /veh KRT8 (11758188_x_at) / RFU NKD1 (11759106_at) / Fold change /veh NKD1 (11759106_at) / RFU SRD5A1 (11742802_a_at) / Fold change /veh SRD5A1 (11742802_a_at) / RFU TPSAB1 /// TPSB2 (11721975_s_at) / Fold change /veh TPSAB1 /// TPSB2 (11721975_s_at) / RFU GSTM3 (11746129_a_at) / Fold change /veh GSTM3 (11746129_a_at) / RFU IL23R (11737362_x_at) / Fold change /veh IL23R (11737362_x_at) / RFU TMEM51 (11727254_a_at) / Fold change /veh TMEM51 (11727254_a_at) / RFU PIWIL2 (11732686_x_at) / Fold change /veh PIWIL2 (11732686_x_at) / RFU ORM1 (11744905_x_at) / Fold change /veh ORM1 (11744905_x_at) / RFU CCDC152 (11743942_at) / Fold change /veh CCDC152 (11743942_at) / RFU ECM1 (11717891_a_at) / Fold change /veh ECM1 (11717891_a_at) / RFU IL23R (11748794_a_at) / Fold change /veh IL23R (11748794_a_at) / RFU TNFAIP8L3 (11732012_x_at) / Fold change /veh TNFAIP8L3 (11732012_x_at) / RFU MBOAT4 (11741988_at) / Fold change /veh MBOAT4 (11741988_at) / RFU 11764193_at / Fold change /veh 11764193_at / RFU TMEM53 (11763286_at) / Fold change /veh TMEM53 (11763286_at) / RFU MAGEB2 (11727129_at) / Fold change /veh MAGEB2 (11727129_at) / RFU TMEM200A (11744735_a_at) / Fold change /veh TMEM200A (11744735_a_at) / RFU CCDC152 (11751479_a_at) / Fold change /veh CCDC152 (11751479_a_at) / RFU FAM211A (11726209_a_at) / Fold change /veh FAM211A (11726209_a_at) / RFU RGS16 (11746705_a_at) / Fold change /veh RGS16 (11746705_a_at) / RFU VCAN (11755009_s_at) / Fold change /veh VCAN (11755009_s_at) / RFU RHOB (11743442_s_at) / Fold change /veh RHOB (11743442_s_at) / RFU RGS16 (11720943_a_at) / Fold change /veh RGS16 (11720943_a_at) / RFU RGS16 (11720944_at) / Fold change /veh RGS16 (11720944_at) / RFU, VPS4B / Fold change vs veh, VPS4B / RFU, CREB1 / Fold change vs veh, CREB1 / RFU, DNAJC13 / Fold change vs veh, DNAJC13 / RFU, GNAQ / Fold change vs veh, GNAQ / RFU, CDK5R1 / Fold change vs veh, CDK5R1 / RFU, ZRANB3 / Fold change vs veh, ZRANB3 / RFU, CUL4A / Fold change vs veh, CUL4A / RFU, CCNY / Fold change vs veh, CCNY / RFU, UFL1 / Fold change vs veh, UFL1 / RFU, COG3 / Fold change vs veh, COG3 / RFU, DIAPH2 / Fold change vs veh, DIAPH2 / RFU, SKA2 / Fold change vs veh, SKA2 / RFU, AFF3 / Fold change vs veh, AFF3 / RFU, LMF1 / Fold change vs veh, LMF1 / RFU, IPO11 / Fold change vs veh, IPO11 / RFU, DFFB / Fold change vs veh, DFFB / RFU, FOXP1 / Fold change vs veh, FOXP1 / RFU, CARD8 / Fold change vs veh, CARD8 / RFU, STRN3 / Fold change vs veh, STRN3 / RFU, ADK / Fold change vs veh, ADK / RFU, RASSF2 / Fold change vs veh, RASSF2 / RFU, WIPF1 / Fold change vs veh, WIPF1 / RFU, LARP1B / Fold change vs veh, LARP1B / RFU, RASA1 / Fold change vs veh, RASA1 / RFU, RB1 / Fold change vs veh, RB1 / RFU, PPFIA1 / Fold change vs veh, PPFIA1 / RFU, MAT2A / Fold change vs veh, MAT2A / RFU, CCT5 / Fold change vs veh, CCT5 / RFU, WDR92 / Fold change vs veh, WDR92 / RFU, CUX1 / Fold change vs veh, CUX1 / RFU, TTC7A / Fold change vs veh, TTC7A / RFU, TMEM135 / Fold change vs veh, TMEM135 / RFU, DEPTOR / Fold change vs veh, DEPTOR / RFU, CPM / Fold change vs veh, CPM / RFU, DNAJB6 / Fold change vs veh, DNAJB6 / RFU, CACNA2D3 / Fold change vs veh, CACNA2D3 / RFU, DTX4 / Fold change vs veh, DTX4 / RFU, TFCP2 / Fold change vs veh, TFCP2 / RFU, GMCL1 /// GMCL1P1 / Fold change vs veh, GMCL1 /// GMCL1P1 / RFU, AEBP2 / Fold change vs veh, AEBP2 / RFU, SNHG1 /// SNORD22 /// SNORD25 /// SNORD26 /// SNORD27 /// SNORD28 /// SNORD29 /// SNORD31 / Fold change vs veh, SNHG1 /// SNORD22 /// SNORD25 /// SNORD26 /// SNORD27 /// SNORD28 /// SNORD29 /// SNORD31 / Fold change (Aza/veh), C12orf56 (ProbeSet 11735607_a_at) / Fold change (ACY-1035/veh), C12orf56 (ProbeSet 11735607_a_at) / Fold change (Aza/veh), FGFR1OP (ProbeSet 11751329_s_at) / Fold change (ACY-1035/veh), FGFR1OP (ProbeSet 11751329_s_at) / Fold change (Aza/veh), VPS36 (ProbeSet 11739960_a_at) / Fold change (ACY-1035/veh), VPS36 (ProbeSet 11739960_a_at) / RFU SYPL1 (11715823_x_at) / Fold change /veh SYPL1 (11715823_x_at) / RFU IGFBP7 (11715501_s_at) / Fold change /veh IGFBP7 (11715501_s_at) / RFU REEP3 (11722064_at) / Fold change /veh REEP3 (11722064_at) / RFU IGLL1 (11728026_x_at) / Fold change /veh IGLL1 (11728026_x_at): dose or concentration left out as unconfirmed
# Conditions: ProbeSet 11726703_a_at; LIST B
smiles,measurement,value
Nc1ccc(-c2cccs2)cc1NC(=O)c1ccc2c(c1)cc(C1CC1)n2CCN1CCOCC1 [ACY-1035],"RFU, BCL10",67.93 RFU

# Source: paper PMC5218480 (PLoS ONE, 2017)
